Results taken from patent US11584725B2, “Pyrazinoic acid conjugates and hybrid conjugates” (Augusta University Research Institute, Inc., priority 2018, dated 2023).
In brackets after ≈: the same amount, converted by molar mass. Several values for one entry are separate records, joined by “and”; a condition that tells them apart may be missing. Identical values can stand only once. Like-named read-outs stand apart in the source and are kept apart here.

Legend:
Assay type in all cases: cell-based
[1] = system: Mycobacterium fortuitum; experiment: Anti-mycobacterial MIC; details: for MIC: Mycolicibacterium fortuitum
[2] = system: Mycobacterium marinum; experiment: Anti-mycobacterial MIC; details: read-out: Minimum inhibitory concentration (MIC), observed
[3] = system: Mycobacterium bovis; experiment: microbe, parasite or virus in culture; details: for MIC lower than that of the standard reference (INH): Mycobacterium bovis, MIC vs INH; for MIC: Mycobacterium tuberculosis variant bovis, read-out: Minimum inhibitory concentration (MIC)
[4] = system: Klebsiella pneumonia; experiment: Antibacterial MIC, aerobic bacteria, standard technique; details: Klebsiella pneumoniae, read-out: Minimum inhibitory concentration (MIC)
Text: (§1) Antibacterial properties were investigated for the synthesized compounds against a variety of Gram-positive (Staphylococcus aureus, Enterococcus faecalis) and Gram-negative (Klebsiella pneumonia, Proteus vulgaris, Pseudomonas aeruginosa) bacteria utilizing the standard technique.

[5] = system: Enterococcus faecalis; experiment: as above; details: read-out: Minimum inhibitory concentration (MIC)
Text: as §1

[6] = system: Proteus vulgaris; experiment: as above; details: read-out: Minimum inhibitory concentration (MIC)
Text: as §1

[7] = system: Staphylococcus aureus; experiment: as above; details: read-out: Minimum inhibitory concentration (MIC)
Text: as §1

[8] = read-out: Minimum inhibitory concentration (MIC)
[9] = read-out: Minimum inhibitory concentration (MIC), observed

CC(C)[C@H](NC(=O)c1cnccn1)C(=O)O
MIC [1, 8]: > 20 mg/mL

CSCC[C@H](NC(=O)c1cnccn1)C(=O)O
MIC [1, 8]: > 20 mg/mL

O=C(N[C@@H](Cc1ccccc1)C(=O)O)c1cnccn1
MIC [1, 8]: > 20 mg/mL

O=C(NC(Cc1ccccc1)C(=O)O)c1cnccn1 (stereo not shown)
MIC [1, 8]: > 20 mg/mL

O=C(N[C@@H](Cc1c[nH]c2ccccc12)C(=O)O)c1cnccn1
MIC [1, 8]: > 20 mg/mL

O=C(NNC(=O)C(Cc1ccccc1)NC(=O)c1cnccn1)c1ccncc1 (stereo not shown)
MIC [1, 8]: 10 mg/mL

O=C(NNC(=O)C(Cc1ccccc1)NC(=O)c1cnccn1)c1ccncc1 (racemic) [PZA-DL-Phe-INH]
Potency relative to the standard reference (INH) ([1]; MIC vs INH): about 5.6 folds

NNC(=O)c1ccncc1 [INH, isoniazide, reference compound]
MIC [2]: 72.9 mM (≈ 10 mg/mL)

O=C(NNC(=O)c1ccncc1)c1ccncc1 [Iso-INH]
MIC [1, 9]: 82.6 mM | MIC [2]: 82.6 mM (≈ 20 mg/mL) | MIC lower than that of the standard reference (INH) [3]: about 1.8 folds

NC(=O)c1cnccn1 [PZA, Pyrazinamide, reference compound]
MIC [1, 9]: 81.2 mM | MIC [2]: 81.2 mM (≈ 10 mg/mL)

O=C(NNC(=O)c1cnccn1)c1ccncc1 [PZA-INH]
MIC [1, 9]: 41.1 mM | MIC [2]: 41.1 mM (≈ 10 mg/mL) | MIC lower than that of the standard reference (INH) [3]: about 1.8 folds

CCC(C)C(NC(=O)c1cnccn1)C(=O)NNC(=O)c1ccncc1 (stereo not shown) [PZA-Ile-INH]
MIC [1, 9]: 56.1 mM | MIC [2]: 56.1 mM (≈ 20 mg/mL)

CC(C)C[C@H](NC(=O)c1cnccn1)C(=O)NNC(=O)c1ccncc1 [PZA-Leu-INH]
MIC [1, 9]: 56.1 mM | MIC [2]: 56.1 mM (≈ 20 mg/mL)

CC(C)C[C@H](NC(=O)c1cnccn1)C(=O)O [PZA-Leu-OH]
MIC [1, 9]: 84.3 mM | MIC [2]: 84.3 mM (≈ 20 mg/mL)

CSCC[C@H](NC(=O)c1cnccn1)C(=O)NNC(=O)c1ccncc1 [PZA-Met-INH]
MIC [1, 9]: 53.4 mM | MIC [2]: 26.7 mM (≈ 10 mg/mL)

O=C(NNC(=O)[C@H](Cc1ccccc1)NC(=O)c1cnccn1)c1ccncc1 [PZA-Phe-INH]
MIC [1, 9]: 51.2 mM | MIC [2]: 51.2 mM (≈ 20 mg/mL)

O=C(NNC(=O)[C@H](Cc1c[nH]c2ccccc12)NC(=O)c1cnccn1)c1ccncc1 [PZA-Trp-INH]
MIC [1, 9]: 46.6 mM | MIC [2]: 46.6 mM (≈ 20 mg/mL)

CC(C)[C@H](NC(=O)c1cnccn1)C(=O)NNC(=O)c1ccncc1 [PZA-Val-INH]
MIC [1, 9]: 58.4 mM | MIC [2]: 58.4 mM (≈ 20 mg/mL)

CCC(C)C(NC(=O)c1cnccn1)C(=O)O (stereo not shown) [drawing 30]
MIC [4]: 0.008 mg/mL (≈ 33.7 µM) | MIC [5]: 0.03 µg/mL | MIC [6]: 0.06 µg/mL (≈ 0.253 µM)

CC(C)[C@H](NC(=O)c1cnccn1)C(=O)NNC(=O)c1ccncc1 [drawing 36]
MIC [5]: 0.00035 mM

CCC(C)C(NC(=O)c1cnccn1)C(=O)NNC(=O)c1ccncc1 (stereo not shown) [drawing 37]
MIC [4]: 0.008 mg/mL (≈ 22.4 µM) | MIC [5]: 0.03 µg/mL and 0.08 µM | MIC [6]: 0.06 µg/mL (≈ 0.168 µM)

O=C(NNC(=O)[C@H](Cc1c[nH]c2ccccc12)NC(=O)c1cnccn1)c1ccncc1 [drawing 41]
MIC [7]: 3.73 mM (≈ 1.6 mg/mL)

NC(=O)c1cnccn1 [drawing 44]
MIC [1, 8]: 10 mg/mL

NNC(=O)c1ccncc1 [drawing 45]
MIC [1, 8]: 20 mg/mL

CC(C)C[C@H](NC(=O)c1cnccn1)C(=O)O [drawing 46]
MIC [1, 8]: 20 mg/mL

CCC(C)C(NC(=O)c1cnccn1)C(=O)O (stereo not shown) [drawing 48]
MIC [1, 8]: > 20 mg/mL | MIC [3]: > 20 mg/mL

CC(C)C[C@H](NC(=O)c1cnccn1)C(=O)NNC(=O)c1ccncc1 [drawing 53]
MIC [1, 8]: 20 mg/mL

CC(C)[C@H](NC(=O)c1cnccn1)C(=O)NNC(=O)c1ccncc1 [drawing 54]
MIC [1, 8]: 20 mg/mL

CCC(C)C(NC(=O)c1cnccn1)C(=O)NNC(=O)c1ccncc1 (stereo not shown) [drawing 55]
MIC [1, 8]: 20 mg/mL | MIC [3]: > 20 mg/mL

CSCC[C@H](NC(=O)c1cnccn1)C(=O)NNC(=O)c1ccncc1 [drawing 56]
MIC [1, 8]: 20 mg/mL

O=C(NNC(=O)[C@H](Cc1ccccc1)NC(=O)c1cnccn1)c1ccncc1 [drawing 57]
MIC [1, 8]: 20 mg/mL

O=C(NNC(=O)[C@H](Cc1c[nH]c2ccccc12)NC(=O)c1cnccn1)c1ccncc1 [drawing 59]
MIC [1, 8]: 20 mg/mL

O=C(NNC(=O)c1cnccn1)c1ccncc1 [drawing 60]
MIC [1, 8]: 10 mg/mL

O=C(NNC(=O)c1ccncc1)c1ccncc1 [drawing 61]
MIC [1, 8]: 20 mg/mL
